# Measurements published in the supplement of paper PMC11061612.
# Tests used:
# [1] = system: MHH-ES-1 (Ewing's Sarcoma); assay: Bliss excess, mean over the matrix (fraction); higher = more synergy
# Procedure, shortened: (§1)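 Cell lines grown in DMEM/F12 or RPMI with 10% FBS were plated in 1536-well plates and held 24 hours at 37°C, 5% CO2 before 72 hours of exposure to two-drug dose matrices, with DMSO typically at 0.2%. CellTiter-Glo 2.0 luminescence gave viability, which was converted to inhibition. Vehicle wells were set to 0 and blank wells to 1. Combination Emax is the second-highest inhibition in the matrix, and Bliss excess is the observed combination effect minus the expected EA + EB − EA·EB, where EA and EB are the single-agent effects.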
# [2] = system: 22RV1 (Prostate Carcinoma); assay: as above
# Procedure, shortened: as §1
# 769-P (Kidney Carcinoma) = assay: as above
# Procedure, shortened: as §1
# [3] = system: NCI-H1703 (Squamous Cell Lung Carcinoma); assay: as above
# Procedure, shortened: as §1
# [4] = system: MHH-ES-1 (Ewing's Sarcoma); assay: combination Emax (second highest fraction inhibited in the dose matrix, 72 h); higher = more inhibition; extreme values may be limits of the assay
# Procedure, shortened: as §1
# [5] = system: NCI-H441 (Lung Adenocarcinoma); assay: as above
# Procedure, shortened: as §1
# [6] = system: 22RV1 (Prostate Carcinoma); assay: as above
# Procedure, shortened: as §1
# [7] = system: JHU-022 (Oral Cavity Carcinoma); assay: as above
# Procedure, shortened: as §1
# HCC70 (Breast Carcinoma) = assay: as above
# Procedure, shortened: as §1
# IM-9 (Non-Cancerous) = assay: as above
# Procedure, shortened: as §1
# [8] = system: NCI-H2087 (Lung Adenocarcinoma); assay: as above
# Procedure, shortened: as §1
# [9] = system: NCI-H1651 (Lung Adenocarcinoma); assay: as above
# Procedure, shortened: as §1
# [10] = system: SW620 (Colorectal Carcinoma); assay: as above
# Procedure, shortened: as §1
# [11] = system: LU-165 (Small Cell Lung Carcinoma); assay: as above
# Procedure, shortened: as §1
# PEO1 (Ovarian Carcinoma) = assay: as above
# Procedure, shortened: as §1
# [12] = system: MDA-MB-436 (Breast Carcinoma); assay: as above
# Procedure, shortened: as §1
# EB2 (Burkitt's Lymphoma) = assay: as above
# Procedure, shortened: as §1
# [13] = system: NCI-H1703 (Squamous Cell Lung Carcinoma); assay: as above
# Procedure, shortened: as §1
# [14] = system: KYSE-220 (Esophageal Squamous Cell Carcinoma); assay: as above
# Procedure, shortened: as §1
# WM1552C (Melanoma) = assay: as above
# Procedure, shortened: as §1
# 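For Bliss excess, mean over the matrix in this document: after 72 h of two-drug dosing.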
SMILES,Bliss excess [1],Bliss excess [2],Bliss excess (769-P (Kidney Carcinoma)),Bliss excess [3],combination Emax [4],combination Emax [5],combination Emax [6],combination Emax [7],combination Emax (HCC70 (Breast Carcinoma)),combination Emax (IM-9 (Non-Cancerous)),combination Emax [8],combination Emax [9],combination Emax [10],combination Emax [11],combination Emax (PEO1 (Ovarian Carcinoma)),combination Emax [12],combination Emax (EB2 (Burkitt's Lymphoma)),combination Emax [13],combination Emax [14],combination Emax (WM1552C (Melanoma))
"Cc1cc2ncnn2cc1Nc1ncc2c(n1)n(C1CCOCC1)c(=O)n2C [AZD7648] + C=CCn1c(=O)c2cnc(Nc3ccc(N4CCN(C)CC4)cc3)nc2n1-c1cccc(C(C)(C)O)n1 [AZD1775] (first compound max 10 µM, partner max 1 µM)",-0.0116,-0.0214,-0.0082,-0.0283,0.686,0.444,0.46,0.497,0.559,0.996,0.353,0.631,0.526,0.419,0.439,0.362,0.819,0.962,0.882,0.551
"Cc1cc2ncnn2cc1Nc1ncc2c(n1)n(C1CCOCC1)c(=O)n2C [AZD7648] + CCN(CCO)CCCOc1ccc2c(Nc3cc(CC(=O)Nc4cccc(F)c4)[nH]n3)ncnc2c1 [AZD2811] (first compound max 10 µM, 7x7, partner max 1 µM)",0.0263,-0.022,0.0313,-0.0392,0.54,0.309,0.396,0.4,0.629,0.943,0.215,0.264,0.248,0.288,0.262,0.321,0.473,0.688,0.331,0.43
"Cc1cc2ncnn2cc1Nc1ncc2c(n1)n(C1CCOCC1)c(=O)n2C [AZD7648] + CN(C)CCCOc1ccc(-c2ccc3ncc4c(c3c2)n(C2CCOCC2)c(=O)n4C)cn1 [AZD0156] (first compound max 10 µM, 7x7, partner max 1 µM)",0.0138,-0.0334,-0.0086,-0.033,0.269,0.324,0.468,0.3,0.3,0.456,0.146,0.194,0.229,0.346,0.184,0.289,0.484,0.521,0.27,0.29
"Cc1cc2ncnn2cc1Nc1ncc2c(n1)n(C1CCOCC1)c(=O)n2C [AZD7648] + COc1cc([C@@H]2c3cc4c(cc3[C@@H](O[C@@H]3O[C@@H]5CO[C@@H](C)O[C@H]5[C@H](O)[C@H]3O)[C@H]3COC(=O)[C@H]23)OCO4)cc(OC)c1O [Etoposide] (first compound max 10 µM, 7x7, partner max 10 µM)",0.105,0.0583,0.0859,0.0532,0.931,0.449,0.666,0.577,0.373,1,0.633,0.738,0.95,0.495,0.613,0.386,0.953,0.892,0.876,0.507
"Cc1cc2ncnn2cc1Nc1ncc2c(n1)n(C1CCOCC1)c(=O)n2C [AZD7648] + C[C@@H]1COCCN1C2=NC(=NC(=C2)C3(CC3)[S@](=N)(=O)C)C4=C5C=CNC5=NC=C4 [AZD6738] (first compound max 10 µM, 7x7, partner max 10 µM)",0.0275,-0.0179,0.0264,0.0089,0.565,0.478,0.518,0.578,0.764,0.964,0.583,0.536,0.437,0.317,0.482,0.362,0.803,0.901,0.91,0.633
"Cc1cc2ncnn2cc1Nc1ncc2c(n1)n(C1CCOCC1)c(=O)n2C [AZD7648] + O=C(c1cc(Cc2n[nH]c(=O)c3ccccc23)ccc1F)N1CCN(C(=O)C2CC2)CC1 [Olaparib] (first compound max 10 µM, 7x7, partner max 10 µM)",-0.0218,-0.0832,-0.024,-0.0307,0.801,0.163,0.346,0.172,0.178,0.51,0.135,0.263,0.159,0.143,0.153,0.195,0.526,0.417,0.149,0.117
"Cc1nc(Nc2ncc(C(=O)Nc3c(C)cccc3Cl)s2)cc(N2CCN(CCO)CC2)n1 [Dasatinib] + CC(=O)Nc1cccc(-n2c(=O)n(C3CC3)c(=O)c3c(Nc4ccc(I)cc4F)n(C)c(=O)c(C)c32)c1 [Trametinib] (first compound max 2 µM, 7x7, partner max 1 µM)",-0.0487,-0.0578,-0.0331,-0.0483,0.135,0.442,0.361,0.681,0.288,0.876,0.573,0.136,0.694,0.144,0.492,0.342,0.531,0.782,0.555,0.764
"COc1cc2ncnc(Nc3ccc(F)c(Cl)c3)c2cc1OCCCN1CCOCC1 [Gefitinib] + CC(C)n1c(=O)n(C)c2cnc3cc(F)c(-c4ccc(OCCCN5CCCCC5)nc4)cc3c21 [AZD1390] (first compound max 10 µM, 7x7, partner max 0.3 µM)",-0.0611,-0.079,-0.0722,0.0012,0.182,0.271,0.148,0.626,0.162,0.424,0.131,0.112,0.0744,0.173,0.175,0.225,0.38,0.305,0.431,0.12
"COc1cc2c(cc1OCCCCCOc1cc3c(cc1OC)C(=O)N1C=C(C)C[C@H]1C=N3)N=C[C@@H]1CC(C)=CN1C2=O [SG3199] + O=C(c1cc(Cc2n[nH]c(=O)c3ccccc23)ccc1F)N1CCN(C(=O)C2CC2)CC1 [Olaparib] (first compound max 0.001 µM, 7x7, partner max 10 µM)",-0.0454,-0.0421,-0.0643,-0.0451,0.703,0.131,0.095,0.0543,0.129,0.38,0.106,0.274,0.144,0.0933,0.0793,0.121,0.278,0.0514,0.119,0.178
"N#Cc1cnc(Nc2cc(NC[C@H]3CNCCO3)c(C(F)(F)F)cn2)cn1 [SRA737] + C=CCn1c(=O)c2cnc(Nc3ccc(N4CCN(C)CC4)cc3)nc2n1-c1cccc(C(C)(C)O)n1 [AZD1775] (first compound max 10 µM, partner max 1 µM)",0.0231,0.0367,0.0166,0.0391,0.667,0.446,0.516,0.528,0.848,1,0.645,0.713,0.587,0.598,0.48,0.274,0.911,0.972,0.711,0.751
"N#Cc1cnc(Nc2cc(NC[C@H]3CNCCO3)c(C(F)(F)F)cn2)cn1 [SRA737] + CCc1c2c(nc3ccc(O)cc13)-c1cc3c(c(=O)n1C2)COC(=O)[C@]3(O)CC [SN-38] (first compound max 10 µM, 7x7, partner max 0.3 µM)",-0.0259,-0.0792,-0.0284,-0.0606,0.975,0.663,0.685,0.759,0.674,1,0.918,0.835,0.955,0.647,0.746,0.549,0.929,0.929,0.905,0.638
"N#Cc1cnc(Nc2cc(NC[C@H]3CNCCO3)c(C(F)(F)F)cn2)cn1 [SRA737] + Nc1ccn([C@@H]2O[C@H](CO)[C@@H](O)C2(F)F)c(=O)n1 [Gemcitabine] (first compound max 10 µM, 7x7, partner max 0.3 µM)",0.0613,-0.0663,-0.0313,-0.012,0.986,0.58,0.734,0.685,0.823,1,0.585,0.735,0.889,0.544,0.728,0.579,0.945,0.952,0.78,0.796
"N#Cc1cnc(Nc2cc(NC[C@H]3CNCCO3)c(C(F)(F)F)cn2)cn1 [SRA737] + O=c1[nH]cc(F)c(=O)[nH]1 [5-Fluorouracil] (first compound max 10 µM, 7x7, partner max 20 µM)",0.0337,0.0268,-0.112,-0.0304,0.697,0.381,0.616,0.513,0.743,1,0.309,0.479,0.422,0.413,0.458,0.409,0.88,0.885,0.497,0.728
"C[C@@H](c1ccc2nccn2c1)n1nnc2ncc(-c3cnn(C)c3)nc21 [Savolitinib] + CC1(C)CCC(CN2CCN(c3ccc(C(=O)NS(=O)(=O)c4ccc(NCC5CCOCC5)c([N+](=O)[O-])c4)c(Oc4cnc5[nH]ccc5c4)c3)CC2)=C(c2ccc(Cl)cc2)C1 [Venetoclax] (first compound max 1 µM, 7x7, partner max 1 µM)",-0.031,-0.0952,-0.0419,-0.015,0.185,0.171,0.214,0.257,0.165,0.385,0.184,0.186,0.124,0.221,0.219,0.28,0.153,0.139,0.146,0.0794
